Test results as given in patent publication US5426103A, “Certain macrocyclic lactam derivatives” (Ciba-Geigy Corporation, priority 1993, dated 1995).

Columns and labels:
[1] = molecular target: T1, neutral endopeptidase (NEP) (Rattus norvegicus, UniProt P07861); assay: inhibition of neutral endopeptidase (NEP), substrate not stated with the result; assay type: biochemical; settings: for relative NEP inhibiting activity of isomers: compared with the other isomer; for IC50: substrate (GAAP or ANF) not stated
T1 sequence (P07861 1-750): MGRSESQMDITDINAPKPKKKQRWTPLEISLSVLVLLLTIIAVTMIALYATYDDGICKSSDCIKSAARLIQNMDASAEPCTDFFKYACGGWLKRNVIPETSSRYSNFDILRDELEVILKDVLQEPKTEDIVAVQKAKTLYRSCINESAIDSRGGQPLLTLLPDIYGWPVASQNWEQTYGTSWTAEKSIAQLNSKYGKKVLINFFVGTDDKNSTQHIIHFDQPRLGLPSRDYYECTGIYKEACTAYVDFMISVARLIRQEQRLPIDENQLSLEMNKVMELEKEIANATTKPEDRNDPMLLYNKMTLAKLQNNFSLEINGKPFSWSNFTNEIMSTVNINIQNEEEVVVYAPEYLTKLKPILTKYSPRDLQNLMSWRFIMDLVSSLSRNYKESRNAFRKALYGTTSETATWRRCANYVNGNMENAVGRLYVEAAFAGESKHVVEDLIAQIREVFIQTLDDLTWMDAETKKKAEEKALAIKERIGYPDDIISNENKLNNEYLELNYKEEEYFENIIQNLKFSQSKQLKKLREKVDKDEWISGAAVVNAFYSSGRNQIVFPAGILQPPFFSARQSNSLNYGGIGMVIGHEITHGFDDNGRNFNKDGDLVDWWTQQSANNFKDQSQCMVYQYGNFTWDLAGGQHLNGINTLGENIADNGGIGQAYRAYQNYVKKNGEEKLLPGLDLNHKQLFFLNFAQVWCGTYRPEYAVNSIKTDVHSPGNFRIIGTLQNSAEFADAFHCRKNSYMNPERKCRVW
Experimental: The in vitro inhibition of neutral endopeptidase (NEP) 3.4.24.11 can be determined as follows:
Neutral endopeptidase 3.4.24.11 activity is determined by the hydrolysis of the substrate glutaryl-Ala-Ala-Phe-2-naphthylamide (GAAP) using a modified procedure of Orlowski and Wilk (1981). The incubation mixture (total volume 125 μl) contains 4.2 μg of protein (rat kidney cortex membranes prepared by method of Maeda et al, 1983), 50 mM tris buffer, pH 7.4 at 25° C., 500 μM substrate (final concentration), and leucine aminopeptidase M (2.5 μg). The mixture is incubated for 10 minutes at 25° C. and 100 μl of fast garnet (250 μg fast garnet/ml of 10% Tween 20 in 1M sodium acetate, pH 4.2) is added. Enzyme activity is measured spectrophotometrically at 540 nm. One unit of NEP 24.11 activity is defined as 1 nmol of 2-naphthylamine released per minute at 25° C. at pH 7.4. IC50 values for inhibition of the enzyme are determined, i.e. the concentration of test compound required for 50% inhibition of the release of 2-naphthylamine.
Neutral endopeptidase activity is also determined using ANF as a substrate. A trial natriuretic factor degrading activity is determined by measuring the disappearance of rat-ANF (r-ANF) using a 3 minute reverse phase-HPLC separation. An aliquot of the enzyme in 50 mM Tris HCl buffer, pH 7.4, is preincubated at 37° C. for 2 minutes and the reaction is initiated by the addition of 4 nmol of r-ANF in a total volume of 50 μl. The reaction is terminated after 4 minutes with the addition of 30 μl of 0.27% trifluoroacetic acid (TFA). Forty microliters of the mixture is injected into a reverse phase-HPLC and analyzed using a C4 cartridge in a 3 minute, isocratic separation. Twenty-three percent of buffer B (0.1% TFA in 80% acetonitrile) is used. Buffer A is 0.1% TFA in water. One unit of activity is defined as the hydrolysis of 1 nmol of r-ANF per minute at 37° C. at pH 7.4. IC50 values for inhibition of the enzyme are determined, i.e. the concentration of test compound required for 50% inhibition of the hydrolysis of ANF.
The test compound is dissolved in dimethyl sulfoxide or 0.25M sodium bicarbonate solution, and the solution is diluted with pH 7.4 buffer to the desired concentration.
In vitro testing is most appropriate for the free mercapto carboxylic acids of the invention.

[2] = molecular target: T2, Neutral endopeptidase 3.4.24.11 (Rattus norvegicus, UniProt P07861); assay: in vitro inhibition of neutral endopeptidase (NEP) 3.4.24.11, GAAP substrate; assay type: biochemical; settings: pH 7.4, 25° C.
T2 construct: rat kidney cortex membranes prepared by method of Maeda et al, 1983; from tissue; host or cells: rat kidney cortex membranes
T2 sequence (P07861 1-750): T1 sequence (P07861 1-750)

[3] = molecular target: T3, angiotensin-converting enzyme (ACE) (Oryctolagus cuniculus, UniProt P12822); assay: in vitro inhibition of the angiotensin-converting enzyme (ACE), hippuryl-histidyl-leucine substrate; assay type: biochemical, rabbit; settings: 37° C., 30 minutes
T3 construct: angiotensin-converting enzyme preparation (from lungs of adult male rabbits); from tissue; host or cells: lungs of adult male rabbits
T3 sequence (P12822 34-1310): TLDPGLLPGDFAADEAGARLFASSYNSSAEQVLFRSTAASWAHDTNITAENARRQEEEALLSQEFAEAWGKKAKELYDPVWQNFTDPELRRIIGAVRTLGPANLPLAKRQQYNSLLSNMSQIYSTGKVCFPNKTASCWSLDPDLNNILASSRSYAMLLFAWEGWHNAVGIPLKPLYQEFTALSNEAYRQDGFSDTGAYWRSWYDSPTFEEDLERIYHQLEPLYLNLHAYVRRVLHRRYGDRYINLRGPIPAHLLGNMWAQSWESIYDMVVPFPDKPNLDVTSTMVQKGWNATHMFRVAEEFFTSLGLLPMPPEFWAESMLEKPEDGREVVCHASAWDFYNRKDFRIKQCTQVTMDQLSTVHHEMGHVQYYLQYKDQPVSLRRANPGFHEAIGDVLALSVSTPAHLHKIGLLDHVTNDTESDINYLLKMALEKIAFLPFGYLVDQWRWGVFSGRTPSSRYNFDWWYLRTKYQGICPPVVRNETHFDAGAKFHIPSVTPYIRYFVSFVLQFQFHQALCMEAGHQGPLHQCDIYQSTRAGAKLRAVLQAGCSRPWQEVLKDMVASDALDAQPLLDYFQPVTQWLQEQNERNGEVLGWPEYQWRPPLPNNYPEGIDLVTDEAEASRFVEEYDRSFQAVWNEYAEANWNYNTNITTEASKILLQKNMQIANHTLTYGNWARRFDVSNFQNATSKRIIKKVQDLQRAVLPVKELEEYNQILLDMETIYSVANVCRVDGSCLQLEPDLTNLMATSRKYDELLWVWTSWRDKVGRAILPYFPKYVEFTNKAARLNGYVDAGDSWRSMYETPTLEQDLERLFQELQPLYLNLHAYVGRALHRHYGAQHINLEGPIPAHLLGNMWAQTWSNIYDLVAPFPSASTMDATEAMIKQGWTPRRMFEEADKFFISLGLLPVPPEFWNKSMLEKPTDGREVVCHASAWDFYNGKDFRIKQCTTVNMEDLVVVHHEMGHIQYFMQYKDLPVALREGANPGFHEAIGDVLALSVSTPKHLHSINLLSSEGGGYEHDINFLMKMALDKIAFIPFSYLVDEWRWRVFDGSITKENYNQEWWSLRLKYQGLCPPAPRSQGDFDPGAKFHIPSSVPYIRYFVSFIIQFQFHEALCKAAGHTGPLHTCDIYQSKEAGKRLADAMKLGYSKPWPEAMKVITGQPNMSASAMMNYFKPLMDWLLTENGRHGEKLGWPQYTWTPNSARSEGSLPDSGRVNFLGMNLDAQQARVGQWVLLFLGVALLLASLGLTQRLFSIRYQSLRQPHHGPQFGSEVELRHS
Experimental: Biophys. Acta 293, p. 451 (1973). For example, said compounds are dissolved at about 1 mM concentration in phosphate buffer. To 100 microliters of solutions of the test compound in phosphate buffer, diluted to the desired concentration, are added 100 microliters of 5 mM hippuryl-histidyl-leucine in phosphate buffer, followed by 50 microliters of the angiotensin-converting enzyme preparation (from lungs of adult male rabbits) in Tris buffer, containing potassium and magnesium chloride, as well as sucrose. Said solutions are incubated at 37° C. for 30 minutes and combined with 0.75 ml of 0.6N aqueous sodium hydroxide to stop further reaction. Then 100 microliters of a 0.2% solution of o-phthalaldehyde in methanol are added at room temperature, and 10 minutes later 100 microliters of 6N hydrochloric acid. These samples are read against water in a spectrophotometer set at 360 nm, and the optical densities thereof estimated. They are corrected for the standard curve via a conversion factor expressing nanomoles of histidyl-leucine formed during said 30 minute incubation period. The results are plotted against drug concentration to determine the IC50, i.e., the drug concentration which gives half the activity of the control sample containing no drug.

| Structure (SMILES) | relative NEP inhibiting activity of isomers [1] | IC50 [2] [µM] | IC50 [1] [µM] | IC50 [3] [µM] |
| --- | --- | --- | --- | --- |
| CC(=O)SC[C@H]1CCCCCC[C@H](C(=O)O)NC1=O (relative stereo) [Example 16, trans 3-(acetylthiomethyl)-2-oxo-1-azacyclodecane-10-carboxylic acid] | more active NEP inhibiting enantiomer |  |  |  |
| O=C1N[C@@H](C(=O)O)CCCCCC[C@@H]1CS (relative stereo) [trans 3-mercaptomethyl-2-oxo-1-azacyclodecane-10-carboxylic acid] | more active neutral endopeptidase (NEP) inhibiting diastereoisomer | ~0.003 |  |  |
| O=C1N[C@H](C(=O)O)CSCCCCCCCC1CS (single isomer, unassigned) | more active NEP inhibiting isomer |  | 0.018 | 0.012 |
| O=C1NC(C(=O)O)CCCCCCCCCCC1CS (stereo not drawn) [3-mercaptomethyl-2oxo-1-azacyclotetradecane-14-carboxylic acid] |  |  | ~0.03 | ~0.045 |
| O=C1N[C@@H](C(=O)O)CCCCCC[C@H]1CS (relative stereo) [Example 2(b), 3-mercaptomethyl-2-oxo-1-azacyclodecane-10-carboxylic acid] | less active diastereoisomer |  |  |  |
| COC(=O)C1CCCCCCCCCCC(CSC(C)=O)C(=O)N1 (single isomer, unassigned) [Example 24 (minor isomer), methyl 3-(acetylthiomethyl)-2-oxo-1-azacyclotetradecane-14-carboxylate] | more active NEP inhibiting isomer |  |  |  |
| O=C1NC(C(=O)O)CCCCCCCCCCC1CS (single isomer, unassigned) [Example 25(b), 3-mercaptomethyl-2-oxo-1-azacyclotetradecane-14-carboxylic acid] | more active NEP inhibiting isomer |  |  |  |
| O=C1N[C@H](C(=O)O)CSCCCCCCCCC1CS (single isomer, unassigned) [Example 35(b)] | more active NEP inhibiting isomer |  |  |  |
